Consider seven molecules from patent US20230286973A1, “PROTEIN SECRETION INHIBITORS” (KEZAR LIFE SCIENCES, priority 2020, published 2023).

Series [1] relates to TNFα-FL/Gaussia Luciferase. Description: Dox Induced TNFα-FL-Gluc Assay. Format: cell-based. The following applies: for IC50: 24 hr Dox induction, 293FRT/TO cells, read-out: 24 hr Dox Inducible TNFaFLGluc 293FRT/TO: Mean IC50; for 24 hr Dox Inducible TNFaFLGluc 293FRT/TO: TNF/PD1: ratio of TNFaFLGluc IC50 to PD1ssGluc IC50. Summed up: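 Doxycycline-inducible Gaussia luciferase-tagged full-length TNFα (1-233) was expressed in stable Flp-In 293 T-REx cells. Compounds were co-added with doxycycline and incubated at 37 °C, 5% CO2.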

The nature of series [2]: Liver Microsome Stability Assay (rat). The note with it: rat liver microsomes, with NADPH, 1.0 uM compound. (Liver microsomes are a subcellular fraction often used to study metabolism.)
Experimental: (§1) Stability of a compound was assessed in the presence of liver microsomes from various sources—mouse, rat, monkey and human liver microsomes. 1.0 uM compound, 0.4% DMSO in 0.1 M Potassium Phosphate with 1.0 mg/mL liver microsomes, were incubated at 37° C. with or without 1 mM NADPH. The samples were quenched at 0, and 30 minutes.
The test system of series [3] is PD1-ss+10aa/Gaussia Luciferase. Description: Dox-Induced PD1-ss-Gluc Assay. Format: cell-based. The following applies: 24 hr Dox induction, 293FRT/TO cells, read-out: 24 hr Dox Inducible PD1ssGluc 293FRT/TO: Mean IC50. In short, it runs like this: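 Flp-In 293 T-REx cells stably carrying a doxycycline-inducible Gaussia luciferase fused to the PD1 signal sequence plus 10 aa were plated the day before. Compound dilutions in DMSO/media containing doxycycline were then added and incubated at 37 °C, 5% CO2. Data for undefined stereochemistry refer to stereoisomer mixtures.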

In series [4] the test system is HER3-ss+4aa/Gaussia Luciferase. In words: Dox-Induced Her3-ss-Gluc Assay. Format: cell-based. The following applies: 24 hr Dox induction, 293FRT/TO cells, read-out: 24 hr Dox Inducible Her3(ss + 4)Gluc 293FRT/TO: Mean IC50. Summed up: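 Reporter line: Flp-In 293 T-REx, T-REx-regulated HER3-ss+4aa fused to Gaussia luciferase. Compound co-added with doxycycline after overnight plating, 37° C., 5% CO2.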

The nature of series [5]: Liver Microsome Stability Assay (mouse). The note with it: mouse liver microsomes, with NADPH, 1.0 uM compound.
Experimental: as §1
Series [6] has as its system multiple myeloma cell line NCI-H929. In words: H929 Cell Viability Assay. The following applies: Homo sapiens, NCI-H929, 48 h, NCI-H929 cells, Celltiter-Glo. It is filed as cell-based, human. In short, it runs like this: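 Viability is scored by CellTiter-Glo luminescence following a 48-hour treatment at 37° C. Data for structures shown without stereochemistry refer to stereoisomer mixtures.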
On the technique in general: In ATP-based viability assays light output follows the ATP content of the culture.

Series [7] has as its system IL-2-FL/Gaussia Luciferase. In words: Dox Induced IL2-FL-Gluc Assay. Format: cell-based. The note with it: for IC50: 24 hr Dox induction, 293FRT/TO cells, read-out: 24 hr Dox Inducible IL2FLGluc 293FRT/TO: Mean IC50; for 24 hr Dox Inducible IL2FLGluc 293FRT/TO: IL2/PD1: ratio of IL2FLGluc IC50 to PD1ssGluc IC50. In short, it runs like this:
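Doxycycline induces an IL-2(1-153)–Gaussia luciferase fusion in a stable Flp-In 293 T-REx line. Compound exposure runs alongside induction at 37° C.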

The nature of series [8]: Liver Microsome Stability Assay (human). The following applies: human liver microsomes, with NADPH, 1.0 uM compound.
Experimental: as §1
The nature of series [9]: Liver Microsome Stability Assay (monkey). The note with it: monkey liver microsomes, with NADPH, 1.0 uM compound.
Experimental: as §1
Series [10] has as its system multiple myeloma cell line U266B1. In words: U266 Cell Viability Assay. Format: cell-based, human. The note with it: Homo sapiens, U-266, 48 h, U266B1 cells, Celltiter-Glo. Summed up:
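Viability is measured as luciferase signal from CellTiter-Glo following a 48-hour incubation with compound at 37° C. under 5% CO2. Where structures lack drawn stereochemistry, values refer to stereoisomer mixtures.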

The mark [11] stands for this setting: '<=>' given where both are I.A.

Like-named read-outs stand apart in the source and are kept apart here.

With `CNS(=O)(=O)N1CC(Oc2ccc(N3CCC[C@@H]3c3csc(NC(=O)c4cccn4Cc4ccnc(F)c4)n3)cc2)C1` [Compound A151, (R)-1-((2-fluoropyridin-4-yl)methyl)-N-(4-(1-(4-((1-(N-methylsulfamoyl)azetidin-3-yl)oxy)phenyl)pyrrolidin-2-yl)thiazol-2-yl)-1H-pyrrole-2-carboxamide], the IC50 came out at 386 nM in [1], 21.5 nM in series [3], 43.1 nM in [4] and 59 nM in series [7]. In addition, the “24 hr Dox Inducible TNFaFLGluc 293FRT/TO: TNF/PD1” value in series [1] amounted to 17.9. For the same molecule, in series [2], the “Liver Microsome Stability (Multiple Species): Rat - % Remaining after 30 min w/NADPH” value turned out to be 38.3%. The “Liver Microsome Stability (Multiple Species): Mouse - % Remaining after 30 min w/NADPH” value in series [5] is 15.3%. Also, the concentration for a half-maximal effect (EC50) in series [6] was 1390 nM; in series [10] it was > 25000 nM. The “24 hr Dox Inducible IL2FLGluc 293FRT/TO: IL2/PD1” value in series [7] was found to be 2.7. Also, the “Liver Microsome Stability (Multiple Species): Human - % Remaining after 30 min w/NADPH” value in series [8] was determined as 7.69%. Also, the “Liver Microsome Stability (Multiple Species): Monkey - % Remaining after 30 min w/NADPH” value in series [9] is reported as 0.95%.
As to `CC(=O)N1CCC(Oc2ccc(N3CCC[C@@H]3c3csc(NC(=O)c4cccn4Cc4ccnc(F)c4)n3)c(F)c2)CC1` [Compound A100, (R)-N-(4-(1-(4-((1-acetylpiperidin-4-yl)oxy)-2-fluorophenyl)pyrrolidin-2-yl)thiazol-2-yl)-1-((2-fluoropyridin-4-yl)methyl)-1H-pyrrole-2-carboxamide], the IC50 in series [1] was 195 nM; in series [3] it was 22.8 nM; in [4], 32 nM; in series [7], 34.2 nM. Further, the “24 hr Dox Inducible TNFaFLGluc 293FRT/TO: TNF/PD1” value in series [1] is on record as 8.57. For the same molecule, in series [2], the “Liver Microsome Stability (Multiple Species): Rat - % Remaining after 30 min w/NADPH” value is listed as 14.8%. Also, the “Liver Microsome Stability (Multiple Species): Mouse - % Remaining after 30 min w/NADPH” value in series [5] is recorded as 3.12%. Also, the EC50 is 442 nM in series [6] and > 25000 nM in series [10]. Moreover, the “24 hr Dox Inducible IL2FLGluc 293FRT/TO: IL2/PD1” value in series [7] worked out at 1.5. In addition, the “Liver Microsome Stability (Multiple Species): Human - % Remaining after 30 min w/NADPH” value in series [8] was 3.16%. The “Liver Microsome Stability (Multiple Species): Monkey - % Remaining after 30 min w/NADPH” value in series [9] is 0.24%.
Take `O=C(Nc1nc(/C=C/c2cccc(=O)[nH]2)cs1)c1cccn1Cc1ccnc(F)c1` [Compound B61]: the IC50 in [1], in [3], in series [4] and in series [7] was > 25000 nM in each case. Also, in series [1], the “24 hr Dox Inducible TNFaFLGluc 293FRT/TO: TNF/PD1” value is “<=>1.00”. For the same molecule, the “Liver Microsome Stability (Multiple Species): Rat - % Remaining after 30 min w/NADPH” value in series [2] worked out at 12.3%. Further, the “Liver Microsome Stability (Multiple Species): Mouse - % Remaining after 30 min w/NADPH” value in [5] was 9.41%. In addition, the EC50 in series [6] and in series [10] was > 25000 nM throughout. In addition, the “24 hr Dox Inducible IL2FLGluc 293FRT/TO: IL2/PD1” value in [7] is given as “<=>1.0”. Besides, in series [8], the “Liver Microsome Stability (Multiple Species): Human - % Remaining after 30 min w/NADPH” value was 0.96%. The “Liver Microsome Stability (Multiple Species): Monkey - % Remaining after 30 min w/NADPH” value in series [9] is given as 0.5%.
With `CC(C)n1cncc1/C=C/c1csc(NC(=O)c2cccn2Cc2ccncc2)n1` [Compound B57, (E)-N-(4-(2-(1-isopropyl-1H-imidazol-5-yl)vinyl)thiazol-2-yl)-1-(pyridin-4-ylmethyl)-1H-pyrrole-2-carboxamide], the IC50 was 16700 nM in series [1], 2860 nM in series [3], > 25000 nM in [4] and > 25000 nM in series [7]. Moreover, the “24 hr Dox Inducible TNFaFLGluc 293FRT/TO: TNF/PD1” value in series [1] came to 5.83. Also, the “Liver Microsome Stability (Multiple Species): Rat - % Remaining after 30 min w/NADPH” value in series [2] came out at 34.4%. The “Liver Microsome Stability (Multiple Species): Mouse - % Remaining after 30 min w/NADPH” value in series [5] came to 17.3%. For the same molecule, the results for the EC50 in [6] and in series [10] were 16300 nM and > 24200 nM, respectively. Also, the “24 hr Dox Inducible IL2FLGluc 293FRT/TO: IL2/PD1” value in [7] is reported as >8.7. For the same molecule, in [8], the “Liver Microsome Stability (Multiple Species): Human - % Remaining after 30 min w/NADPH” value was 17.5%. The “Liver Microsome Stability (Multiple Species): Monkey - % Remaining after 30 min w/NADPH” value in [9] is 2.84%.
As for `CC(=O)N[C@H](C)c1ccc(N2CCC[C@@H]2c2csc(NC(=O)c3cccn3Cc3ccnc(F)c3)n2)cc1` [Compound A70, N-(4-((R)-1-(4-((R)-1-acetamidoethyl)phenyl)pyrrolidin-2-yl)thiazol-2-yl)-1-((2-fluoropyridin-4-yl)methyl)-1H-pyrrole-2-carboxamide], the IC50 in [1] was 236 nM; in [3], 13.2 nM; in series [4], 18.3 nM; in series [7] it was 30 nM. Also, the “24 hr Dox Inducible TNFaFLGluc 293FRT/TO: TNF/PD1” value in series [1] came out at 18. Also, the “Liver Microsome Stability (Multiple Species): Rat - % Remaining after 30 min w/NADPH” value in series [2] is reported as 7.79%. In addition, the “Liver Microsome Stability (Multiple Species): Mouse - % Remaining after 30 min w/NADPH” value in series [5] came out at 23.7%. Also, the figures for the EC50 in [6] and in series [10] were 385 nM and > 25000 nM, respectively. Besides, the “24 hr Dox Inducible IL2FLGluc 293FRT/TO: IL2/PD1” value in series [7] is listed as 2.3. Besides, in series [8], the “Liver Microsome Stability (Multiple Species): Human - % Remaining after 30 min w/NADPH” value is given as 2.86%. For the same molecule, the “Liver Microsome Stability (Multiple Species): Monkey - % Remaining after 30 min w/NADPH” value in [9] is 0.83%.
For the molecule `Cc1ccc(/C=C/c2csc(NC(=O)c3cccn3CC3CCOCC3)n2)nc1F` [Compound D3, (E)-N-(4-(2-(6-fluoro-5-methylpyridin-2-yl)vinyl)thiazol-2-yl)-1-((tetrahydro-2H-pyran-4-yl)methyl)-1H-pyrrole-2-carboxamide], the IC50 is > 25000 nM in series [1] (mean), 734 nM in series [3] (mean), 2000 nM in [4] (mean) and 6660 nM in [7] (mean). The “24 hr Dox Inducible TNFaFLGluc 293FRT/TO: TNF/PD1” value in series [1] (setting [11]) was >34.1. Also, the “Liver Microsome Stability (Multiple Species): Rat - % Remaining after 30 min w/NADPH” value in series [2] worked out at 0.26%. Moreover, in series [5], the “Liver Microsome Stability (Multiple Species): Mouse - % Remaining after 30 min w/NADPH” value stood at 0.46%. For the same molecule, the 50% effective concentration (EC50) in series [6] was 10200 nM; in series [10] it was > 17800 nM. Moreover, the “24 hr Dox Inducible IL2FLGluc 293FRT/TO: IL2/PD1” value in [7] (setting [11]) is on record as 9.1. Also, the “Liver Microsome Stability (Multiple Species): Human - % Remaining after 30 min w/NADPH” value in [8] was 0.24%. The “Liver Microsome Stability (Multiple Species): Monkey - % Remaining after 30 min w/NADPH” value in series [9] was determined as 0.09%.
Consider `CC(=O)N1CCC(C)(Oc2ccc(N3CCC[C@@H]3c3csc(NC(=O)c4cccn4Cc4ccnc(F)c4)n3)cc2)CC1` [Compound A97, (R)-N-(4-(1-(4-((1-acetyl-4-methylpiperidin-4-yl)oxy)phenyl)pyrrolidin-2-yl)thiazol-2-yl)-1-((2-fluoropyridin-4-yl)methyl)-1H-pyrrole-2-carboxamide], for which the IC50 in [1] was 162 nM; in series [3] it was 18.8 nM; in series [4] it was 22.1 nM; in [7] it was 32.8 nM. Further, the “24 hr Dox Inducible TNFaFLGluc 293FRT/TO: TNF/PD1” value in [1] is recorded as 8.64. In series [2], the “Liver Microsome Stability (Multiple Species): Rat - % Remaining after 30 min w/NADPH” value is 42.4%. Besides, the “Liver Microsome Stability (Multiple Species): Mouse - % Remaining after 30 min w/NADPH” value in series [5] is 0.22%. Besides, the EC50 was 448 nM in [6] and > 25000 nM in series [10]. The “24 hr Dox Inducible IL2FLGluc 293FRT/TO: IL2/PD1” value in series [7] is 1.7. In series [8], the “Liver Microsome Stability (Multiple Species): Human - % Remaining after 30 min w/NADPH” value came to 6.01%. Moreover, the “Liver Microsome Stability (Multiple Species): Monkey - % Remaining after 30 min w/NADPH” value in series [9] amounted to 0.4%.

As a reminder, the EC50 is the concentration needed to bring the measured effect to its halfway point.
